Patent US8557816B2, “Aurora kinase modulators and method of use” (Amgen Inc., priority 2007, dated 2013)

Columns and labels:
AuroraA-TPX2 = biological target: T1, AuroraA-TPX2 (Homo sapiens, UniProt O14965); assay: AuroraA-TPX2 Homogeneous Time Resolved Fluorescent (HTRF) kinase assay; format: biochemical; conditions: average; read-out: AurA_IC50_IP (uM Avg)
T1 construct: 20 μL of AuroraA-TPX2 KD GST for a final volume of about 41 μL; GST
T1 sequence (O14965 133-383 limits assumed): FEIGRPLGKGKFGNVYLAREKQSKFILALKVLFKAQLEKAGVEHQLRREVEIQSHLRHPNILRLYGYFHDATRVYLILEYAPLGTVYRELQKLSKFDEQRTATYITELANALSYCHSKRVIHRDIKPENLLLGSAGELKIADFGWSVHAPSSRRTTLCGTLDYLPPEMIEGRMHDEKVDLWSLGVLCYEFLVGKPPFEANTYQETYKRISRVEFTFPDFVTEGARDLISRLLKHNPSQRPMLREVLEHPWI
T1 sequence (Q9ULW0 1-43 partner limits assumed): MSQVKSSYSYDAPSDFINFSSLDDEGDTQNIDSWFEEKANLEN
Summary of the method: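 HTRF read-out (Eu 615 nm to APC 655 nm) of phosphorylated biotin-PLK, detected with 0.02 nM europium anti-phosphoPLK antibody and 0.0005 mg/mL SA-APC after overnight equilibration.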

AuroraB = biological target: T2, AuroraB (Homo sapiens, UniProt Q96GD4); assay: AuroraB Homogeneous Time Resolved Fluorescent (HTRF) kinase assay; format: biochemical; conditions: average; read-out: AurB_IC50_IP (uM Avg)
T2 construct: 20 μL of AuroraB FL H is for a final volume of 41 μL; His
T2 sequence (Q96GD4 whole entry): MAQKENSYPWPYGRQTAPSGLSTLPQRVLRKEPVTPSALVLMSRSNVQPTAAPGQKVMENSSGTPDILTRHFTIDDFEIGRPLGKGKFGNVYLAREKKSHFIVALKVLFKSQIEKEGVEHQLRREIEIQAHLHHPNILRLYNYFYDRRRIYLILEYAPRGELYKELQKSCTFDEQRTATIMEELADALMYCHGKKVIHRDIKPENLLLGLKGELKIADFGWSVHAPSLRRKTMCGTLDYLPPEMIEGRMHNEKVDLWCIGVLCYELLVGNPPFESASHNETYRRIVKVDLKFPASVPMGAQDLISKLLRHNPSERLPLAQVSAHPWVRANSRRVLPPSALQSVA
Summary of the method: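 Read-out is time-resolved FRET between europium anti-phospho-H3 antibody and streptavidin-APC, added in EDTA buffer to stop the reaction and equilibrated about 60 min (ex 320, em 615 and 655 nm). Preceding reaction: ~90 min, full-length enzyme, ATP, 0.1 μM biotin-Histone H3 substrate, Mg/Mn HEPES buffer pH 7.5.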

An IC50 (AuroraA-TPX2) of 0.038 µM and an IC50 (AuroraB) of 0.005 µM were found for `COc1cnc2c(Oc3ccc(Nc4nnc(-c5ccc(SC)cc5)c5ccccc45)cc3)ccnc2c1` [compound 237, N-(4-((7-(methyloxy)-1,5-naphthyridin-4-yl)oxy)phenyl)-4-(4-(methylthio)phenyl)-1-phthalazinamine] in this work.

An IC50 (AuroraA-TPX2) of 0.265 µM and an IC50 (AuroraB) of 0.005 µM were found for `COc1ccc2nccc(Oc3ccc(Nc4nnc(-c5ccccc5)c5ccccc45)cc3)c2c1` [compound 238, N-(4-((6-(methyloxy)-4-quinolinyl)oxy)phenyl)-4-phenyl-1-phthalazinamine] in this work.

An IC50 (AuroraA-TPX2) of 0.12 µM and an IC50 (AuroraB) of 0.008 µM were found for `COc1ccc2nccc(Oc3ccc(Nc4nnc(-c5ccc(Cl)cc5)c5ccccc45)cc3)c2c1` [compound 239, 4-(4-chlorophenyl)-N-(4-((6-(methyloxy)-4-quinolinyl)oxy)phenyl)-1-phthalazinamine] in this work.

An IC50 (AuroraA-TPX2) of 0.006 µM and an IC50 (AuroraB) of 0.001 µM were found for `COc1cccc(-c2nnc(Nc3ccc(Oc4ccnc5cc(-c6cncn6C)sc45)cc3)c3ccccc23)n1` [compound 240, N-(4-((2-(1-methyl-1H-imidazol-5-yl)thieno[3,2-b]pyridin-7-yl)oxy)phenyl)-4-(6-(methyloxy)-2-pyridinyl)-1-phthalazinamine] in this work.

An IC50 (AuroraA-TPX2) of 0.089 µM and an IC50 (AuroraB) of 0.001 µM were found for `Clc1ccc(-c2nnc(Nc3ccc(Oc4ccnc5[nH]ccc45)cc3)c3ccccc23)cc1` [compound 241, 4-(4-chlorophenyl)-N-(4-(1H-pyrrolo[2,3-b]pyridin-4-yloxy)phenyl)-1-phthalazinamine] in this work.

An IC50 (AuroraA-TPX2) of 0.173 µM and an IC50 (AuroraB) of 0.022 µM were found for `N#Cc1ccc2c(Oc3ccc(Nc4nnc(-c5ccc(Cl)cc5)c5ccccc45)cc3)ccnc2c1` [compound 242, 4-((4-((4-(4-chlorophenyl)-1-phthalazinyl)amino)phenyl)oxy)-7-quinolinecarbonitrile] in this work.

An IC50 (AuroraA-TPX2) of 0.014 µM and an IC50 (AuroraB) of 0.005 µM were found for `COc1cnc2c(Oc3ccc(Nc4nnc(-c5ccc(C)c(F)c5)c5ccccc45)cc3)ccnc2c1` [compound 243, 4-(3-fluoro-4-methylphenyl)-N-(4-((7-(methyloxy)-1,5-naphthyridin-4-yl)oxy)phenyl)-1-phthalazinamine] in this work.

An IC50 (AuroraA-TPX2) of 0.153 µM and an IC50 (AuroraB) of 0.006 µM were found for `Brc1cnc2c(Oc3ccc(Nc4nnc(-c5ccccc5)c5ccccc45)cc3)ccnc2c1` [compound 245, N-(4-((7-bromo-1,5-naphthyridin-4-yl)oxy)phenyl)-4-phenyl-1-phthalazinamine] in this work.

An IC50 (AuroraA-TPX2) of 0.032 µM and an IC50 (AuroraB) of 0.008 µM were found for `COc1cnc2c(Oc3ccc(Nc4nnc(-c5ccc(F)c(C)c5)c5ccccc45)cc3)ccnc2c1` [compound 246, 4-(4-fluoro-3-methylphenyl)-N-(4-((7-(methyloxy)-1,5-naphthyridin-4-yl)oxy)phenyl)-1-phthalazinamine] in this work.

An IC50 (AuroraA-TPX2) of 0.219 µM and an IC50 (AuroraB) of 0.032 µM were found for `COc1cnc2c(N(C)c3ccc(Nc4nnc(-c5cc(C)cs5)c5ccccc45)cc3)ccnc2c1` [compound 247, N-methyl-N-(7-(methyloxy)-1,5-naphthyridin-4-yl)-N′-(4-(4-methyl-2-thienyl)-1-phthalazinyl)-1,4-benzenediamine] in this work.

An IC50 (AuroraA-TPX2) of 0.004 µM and an IC50 (AuroraB) of 0.001 µM were found for `Cn1cncc1-c1cc2nccc(Oc3ccc(Nc4nnc(-c5ccc(Cl)cc5)c5ccccc45)cc3)c2s1` [compound 249, 4-(4-chlorophenyl)-N-(4-((2-(1-methyl-1H-imidazol-5-yl)thieno[3,2-b]pyridin-7-yl)oxy)phenyl)-1-phthalazinamine] in this work.

An IC50 (AuroraA-TPX2) of 0.094 µM and an IC50 (AuroraB) of 0.003 µM were found for `Clc1ccc(-c2nnc(Nc3ccc(Oc4ccnc5ccsc45)cc3)c3ccccc23)cc1` [compound 250, 4-(4-chlorophenyl)-N-(4-(thieno[3,2-b]pyridin-7-yloxy)phenyl)-1-phthalazinamine] in this work.

An IC50 (AuroraA-TPX2) of 0.376 µM and an IC50 (AuroraB) of 0.004 µM were found for `c1ccc(-c2nnc(Nc3ccc(Oc4ccnc5ccsc45)cc3)c3ccccc23)cc1` [compound 251, 4-phenyl-N-(4-(thieno[3,2-b]pyridin-7-yloxy)phenyl)-1-phthalazinamine] in this work.

An IC50 (AuroraA-TPX2) of 0.077 µM and an IC50 (AuroraB) of 0.005 µM were found for `Cc1ccc(-c2nnc(Nc3ccc(Oc4ccnc5ccsc45)cc3)c3ccccc23)cc1` [compound 252, 4-(4-methylphenyl)-N-(4-(thieno[3,2-b]pyridin-7-yloxy)phenyl)-1-phthalazinamine] in this work.

An IC50 (AuroraA-TPX2) of 0.173 µM and an IC50 (AuroraB) of 0.009 µM were found for `COc1cnc2c(Oc3ccc(Nc4nnc(-c5ccc(Cl)cc5OC)c5ccccc45)cc3)ccnc2c1` [compound 253, 4-(4-chloro-2-(methyloxy)phenyl)-N-(4-((7-(methyloxy)-1,5-naphthyridin-4-yl)oxy)phenyl)-1-phthalazinamine] in this work.

An IC50 (AuroraA-TPX2) of 1.64 µM and an IC50 (AuroraB) of 0.253 µM were found for `COc1cc2nncc(Oc3ccc(Nc4nnc(-c5ccccc5)c5ccccc45)cc3)c2cc1OC` [compound 254, N-(4-((6,7-bis(methyloxy)-4-cinnolinyl)oxy)phenyl)-4-phenyl-1-phthalazinamine] in this work.

An IC50 (AuroraA-TPX2) of 0.012 µM and an IC50 (AuroraB) of 0.003 µM were found for `CCc1cc(-c2ccc(Cl)cc2)nnc1Nc1ccc(Oc2ccnc3cc(OC)cnc23)cc1` [compound 256, 6-(4-chlorophenyl)-4-ethyl-N-(4-((7-(methyloxy)-1,5-naphthyridin-4-yl)oxy)phenyl)-3-pyridazinamine] in this work.

An IC50 (AuroraA-TPX2) of 0.868 µM and an IC50 (AuroraB) of 0.129 µM were found for `c1ccc(-c2nnc(Nc3ccc(Oc4ncnc5nc[nH]c45)cc3)c3ccccc23)cc1` [compound 257, 4-phenyl-N-(4-(7H-purin-6-yloxy)phenyl)-1-phthalazinamine] in this work.

An IC50 (AuroraA-TPX2) of 0.005 µM and an IC50 (AuroraB) of 0.002 µM were found for `COc1cnc2c(Oc3ccc(Nc4nnc(-c5cccc(N(C)C)c5)c5ccccc45)cc3)ccnc2c1` [compound 258, 4-(3-(dimethylamino)phenyl)-N-(4-((7-(methyloxy)-1,5-naphthyridin-4-yl)oxy)phenyl)-1-phthalazinamine] in this work.

An IC50 (AuroraA-TPX2) of 0.023 µM and an IC50 (AuroraB) of 0.006 µM were found for `O=C(c1cc2nccc(Oc3ccc(Nc4nnc(-c5ccc(Cl)cc5)c5ccccc45)cc3)c2s1)N1CCOCC1` [compound 259, 4-(4-chlorophenyl)-N-(4-((2-(4-morpholinylcarbonyl)thieno-[3,2-b]pyridin-7-yl)oxy)phenyl)-1-phthalazinamine] in this work.

An IC50 (AuroraA-TPX2) of 0.008 µM and an IC50 (AuroraB) of 0.009 µM were found for `COc1cnc2c(Oc3ccc(Nc4nnc(-c5cc(C)c(C)s5)c5ccccc45)cc3)ccnc2c1` [compound 260, 4-(4,5-dimethyl-2-thienyl)-N-(4-((7-(methyloxy)-1,5-naphthyridin-4-yl)oxy)phenyl)-1-phthalazinamine] in this work.

An IC50 (AuroraA-TPX2) of 1.61 µM and an IC50 (AuroraB) of 0.156 µM were found for `COc1cnc2c(Oc3ccc(Nc4nnc(-c5c(C)nn(C)c5C)c5ccccc45)cc3)ccnc2c1` [compound 261, N-(4-((7-(methyloxy)-1,5-naphthyridin-4-yl)oxy)phenyl)-4-(1,3,5-trimethyl-1H-pyrazol-4-yl)-1-phthalazinamine] in this work.

An IC50 (AuroraA-TPX2) of 0.102 µM and an IC50 (AuroraB) of 0.006 µM were found for `COc1cnc2c(Oc3ccc(Nc4nnc(-c5ccc([S+](C)[O-])cc5)c5ccccc45)cc3)ccnc2c1` (stereo not drawn) [compound 262, N-(4-((7-(methyloxy)-1,5-naphthyridin-4-yl)oxy)phenyl)-4-(4-(methylsulfinyl)phenyl)-1-phthalazinamine] in this work.

An IC50 (AuroraA-TPX2) of 0.036 µM and an IC50 (AuroraB) of 0.002 µM were found for `COc1cnc2c(Oc3ccc(Nc4nnc(-c5ccc(S(C)(=O)=O)cc5)c5ccccc45)cc3)ccnc2c1` [compound 263, N-(4-((7-(methyloxy)-1,5-naphthyridin-4-yl)oxy)phenyl)-4-(4-(methylsulfonyl)phenyl)-1-phthalazinamine] in this work.
